The values that follow come from the supplement of paper PMC11061612.

Common to all, as to experiment: Bliss excess, mean over the matrix (fraction); higher = more synergy
In assay [1] the test system is 8505C (Thyroid Gland Carcinoma). An outline of the steps: (§1)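 Bliss excess equals the observed combination effect minus the expected value EA + EB − EA·EB, where EA and EB are the effects of each agent alone. Combination Emax is the second-highest inhibition within the matrix. Inhibition was scaled from CellTiter-Glo 2.0 luminescence, with 0 set by vehicle wells and 1 by blank wells, after 72 hours of two-drug dosing of cells plated in 1536-well plates.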

Assay [2] concerns COR-L279 (Small Cell Lung Carcinoma). An outline of the steps: as §1
The test system of assay [3] is CW-2 (Colorectal Carcinoma). A digest of the protocol:
as §1

Assay [4] deals with DMS-114 (Small Cell Lung Carcinoma). An outline of the steps: as §1
In assay [5] the test system is ESO51 (Esophageal Adenocarcinoma). An outline of the steps:
as §1

Assay [6] has as its system HCC1419 (Breast Carcinoma). An outline of the steps:
as §1

Assay [7] deals with KMS-12-BM (Plasma Cell Myeloma). An outline of the steps: as §1
In assay [8] the test system is KU812 (Chronic Myelogenous Leukemia). A digest of the protocol: as §1
The test system of another assay is NCI-H2731 (Mesothelioma). An outline of the steps:
as §1

Assay [9] deals with NCI-H3122 (Lung Adenocarcinoma). A digest of the protocol: as §1
For assay [10], the system named is NCI-H520 (Squamous Cell Lung Carcinoma). A digest of the protocol:
as §1

Assay [11] deals with NCI-H661 (Non-Small Cell Lung Carcinoma). An outline of the steps: as §1
A further assay deals with RD (Rhabdomyosarcoma). An outline of the steps: as §1
Assay [12] concerns RPMI-8226 (Plasma Cell Myeloma). An outline of the steps:
as §1

Assay [13] relates to SK-GT-2 (Gastric Carcinoma). A digest of the protocol:
as §1

The test system of assay [14] is SK-GT-4 (Esophageal Adenocarcinoma). A digest of the protocol: as §1
Assay [15] relates to SNU-398 (Hepatocellular Carcinoma). A digest of the protocol:
as §1

Assay [16] deals with SU-DHL-5 (B-Cell Non-Hodgkin's Lymphoma). A digest of the protocol:
as §1

Assay [17] concerns T-T (Esophageal Squamous Cell Carcinoma). A digest of the protocol: as §1
Assay [18] concerns VMRC-RCZ (Kidney Carcinoma). An outline of the steps: as §1

Consider `C[C@@H](c1ccc2nccn2c1)n1nnc2ncc(-c3cnn(C)c3)nc21` [Savolitinib] + CC1(C)CCC(CN2CCN(c3ccc(C(=O)NS(=O)(=O)c4ccc(NCC5CCOCC5)c([N+](=O)[O-])c4)c(Oc4cnc5[nH]ccc5c4)c3)CC2)=C(c2ccc(Cl)cc2)C1 [Venetoclax] (first compound max 1 µM, 7x7, partner max 1 µM), for which the Bliss excess in assay [1] is -0.0664; in [2], -0.0059; in assay [3] it was -0.0459; in assay [4] it was 0.0131; in assay [5], -0.0334; in assay [6], -0.0225. In addition, the Bliss excess is 0.0253 in assay [7]; -0.0303 in assay [8]; -0.0423 in the assay with NCI-H2731 (Mesothelioma); -0.0394 in assay [9]; -0.0333 in [10]; -0.0651 in assay [11]. The Bliss excess with RD (Rhabdomyosarcoma) was -0.0598; in [12], -0.0456; in assay [13] it was -0.0144; in assay [14], -0.0732; in assay [15] it was -0.057; in [16], -0.0977. Besides, the Bliss excess was 0.011 in [17] and -0.0374 in assay [18].
With `Cc1c2c(nn1C)CSCc1cc(n(C)n1)CSc1cc(c3ccccc3c1)OCCCc1c(C(=O)O)n(C)c3c-2c(Cl)ccc13` [AZD5991] + Cc1cc2ncnn2cc1Nc1ncc2c(n1)n(C1CCOCC1)c(=O)n2C [AZD7648] (first compound max 1 µM, 7x7, partner max 10 µM), the Bliss excess is -0.0125 in assay [1]; 0.0671 in [2]; 0.0242 in assay [3]; 0.0346 in assay [4]; -0.0216 in assay [5]; -0.0196 in assay [6]. Moreover, the Bliss excess is -0.0033 in assay [7]; -0.0046 in assay [8]; -0.0637 in the assay on NCI-H2731 (Mesothelioma); -0.0563 in [9]; -0.0453 in assay [10]; -0.0546 in assay [11]. Besides, the Bliss excess with RD (Rhabdomyosarcoma) is -0.049; in [12] it was -0.0436; in assay [13], 0.0164; in assay [14], -0.0651; in [15], -0.0125; in assay [16], -0.0377. The values for the Bliss excess in [17] and in assay [18] were 0.007 and -0.0405, respectively.
In the case of `COc1cccc(OCCCN)c1-c1cc(Nc2cnc(C#N)cn2)n[nH]1` [Prexasertib] + C=CCn1c(=O)c2cnc(Nc3ccc(N4CCN(C)CC4)cc3)nc2n1-c1cccc(C(C)(C)O)n1 [AZD1775] (first compound max 1 µM, partner max 1 µM), the Bliss excess in assay [1] was 0.0849; in [2], 0.0823; in assay [3] it was 0.0224; in assay [4] it was 0.0129; in assay [5], -0.0153; in assay [6] it was -0.0136. For the same molecule, the Bliss excess in assay [7] was 0.0595; in assay [8] it was -0.0401; in the assay on NCI-H2731 (Mesothelioma), 0.0338; in assay [9], 0.124; in assay [10], 0.0421; in assay [11] it was -0.0287. For the same molecule, the Bliss excess with RD (Rhabdomyosarcoma) was 0.0732; in assay [12], 0.0893; in assay [13], 0.0286; in [14] it was 0.0313; in [15], 0.0254; in assay [16], 0.0644. For the same molecule, the Bliss excess in assay [17] is 0.208; in assay [18] it was -0.02.
On to `CN(C)CCCOc1ccc(-c2ccc3ncc4c(c3c2)n(C2CCOCC2)c(=O)n4C)cn1` [AZD0156] + C=CCn1c(=O)c2cnc(Nc3ccc(N4CCN(C)CC4)cc3)nc2n1-c1cccc(C(C)(C)O)n1 [AZD1775] (first compound max 1 µM, partner max 1 µM), for which the Bliss excess in [1] was -0.0492; in assay [2], -0.0763; in assay [3] it was -0.0106; in assay [4] it was -0.0479; in [5], 0.0363; in assay [6] it was -0.0446. For the same molecule, the Bliss excess in assay [7] was 0.0744; in assay [8], -0.0046; with NCI-H2731 (Mesothelioma) it was -0.0898; in [9], -0.0352; in assay [10] it was -0.0692; in assay [11], -0.0615. Besides, the Bliss excess was -0.0377 with RD (Rhabdomyosarcoma); -0.0017 in assay [12]; -0.0776 in [13]; -0.0676 in assay [14]; -0.0887 in [15]; -0.0016 in assay [16]. In addition, the Bliss excess in assay [17] was -0.0122; in assay [18], -0.0797.
As for `CC1(C)CCC(CN2CCN(c3ccc(C(=O)NS(=O)(=O)c4ccc(NCC5CCOCC5)c([N+](=O)[O-])c4)c(Oc4cnc5[nH]ccc5c4)c3)CC2)=C(c2ccc(Cl)cc2)C1` [Venetoclax] + CCN(CCO)CCCOc1ccc2c(Nc3cc(CC(=O)Nc4cccc(F)c4)[nH]n3)ncnc2c1 [AZD2811] (first compound max 1 µM, 7x7, partner max 1 µM), the Bliss excess in assay [1] was -0.0133; in assay [2], 0.0501; in assay [3], 0.0269; in assay [4], -0.0334; in [5] it was -0.0104; in [6] it was -0.0448. For the same molecule, the Bliss excess was 0.0773 in [7]; -0.0433 in assay [8]; -0.021 in the assay with NCI-H2731 (Mesothelioma); -0.0229 in [9]; 0.0319 in assay [10]; -0.0105 in assay [11]. Further, the Bliss excess is -0.0311 in the assay on RD (Rhabdomyosarcoma); 0.0361 in assay [12]; 0.0136 in assay [13]; -0.0295 in assay [14]; -0.0599 in assay [15]; -0.125 in assay [16]. Also, the Bliss excess in assay [17] is 0.0158; in assay [18] it was -0.0391.
For `CCc1c2c(nc3ccc(O)cc13)-c1cc3c(c(=O)n1C2)COC(=O)[C@]3(O)CC` [SN-38] + CN(C)CCCOc1ccc(-c2ccc3ncc4c(c3c2)n(C2CCOCC2)c(=O)n4C)cn1 [AZD0156] (first compound max 0.3 µM, 7x7, partner max 1 µM), the Bliss excess was 0.014 in [1]; 0.0163 in assay [2]; -0.0118 in assay [3]; 0.0147 in assay [4]; -0.031 in assay [5]; -0.0773 in assay [6]. In addition, the Bliss excess is 0.0462 in assay [7]; -0.027 in assay [8]; -0.0407 in the assay with NCI-H2731 (Mesothelioma); 0.0427 in [9]; 0.0044 in assay [10]; 0.0286 in assay [11]. For the same molecule, the Bliss excess in the assay on RD (Rhabdomyosarcoma) was -0.0329; in assay [12] it was 0.0218; in [13], 0.0054; in assay [14], -0.12; in assay [15], 0.0255; in [16], 0.0712. Besides, the Bliss excess in assay [17] is -0.0151; in assay [18], -0.0124.
In the case of `CN(CCO)CC[C@H](CSc1ccccc1)Nc1ccc(S(=O)(=O)NC(=O)c2ccc(N3CCC([C@@H](O)c4ccccc4-c4ccc(Cl)cc4)CC3)cc2)cc1S(=O)(=O)C(F)(F)F` [AZD4320] + C[C@@H]1COCCN1C2=NC(=NC(=C2)C3(CC3)[S@](=N)(=O)C)C4=C5C=CNC5=NC=C4 [AZD6738] (first compound max 1 µM, 7x7, partner max 10 µM), the Bliss excess is -0.0298 in [1]; 0.0292 in assay [2]; -0.0321 in assay [3]; 0.0073 in assay [4]; -0.0203 in assay [5]; -0.0752 in assay [6]. In addition, the Bliss excess was 0.0012 in [7]; 0.0007 in [8]; -0.0178 in the assay with NCI-H2731 (Mesothelioma); -0.0965 in assay [9]; -0.0547 in assay [10]; -0.0197 in assay [11]. Besides, the Bliss excess with RD (Rhabdomyosarcoma) was -0.0334; in [12] it was 0.0338; in [13], 0.0109; in assay [14], -0.0873; in assay [15], -0.0452; in assay [16], -0.0426. Besides, the Bliss excess in assay [17] was 0.0494; in [18] it was -0.0331.
